Measurements taken from patent US10029986B2, “Alkynyl pyridine-substituted amide compound and pesticide” (NISSAN CHEMICAL INDUSTRIES, LTD., priority 2014, dated 2018).

Columns and labels:
[1] = tested on: Blumeria graminis f. sp. tritici; test: Test on the preventive effect against wheat powdery mildew; type: in vivo; conditions: 168 h, test solution A 500 ppm, 5 ml per pot, wheat 1.3-leaf stage, 7 days after inoculation
Protocol: Compounds of the present invention were dissolved in a solvent for emulsion (a mixture of Sorpol (registered trademark) 3005XL (manufactured by Toho Chemical Industry Co., Ltd.): N-methylpyrrolidone: Solvesso (registered trademark) 200 (manufactured by ExxonMobil Chemical) in a ratio of 1:5:2) to prepare 20 wt % emulsifiable concentrates. Then, distilled water was added to dilute the emulsifiable concentrates to the prescribed concentration (500 ppm), and the obtained solutions were used in the following the Test Examples 1 to 8. Wheat (varieties: Norin 61) was seeded in 90 cm^3 plastic pot, and at the 1.3-leaf stage, 5 ml per pot of test solution A of the compounds of the present invention were applied. One day after treatment, the pot was placed in an air-conditioned greenhouse (20° C.), and conidium of Blumeria graminis f. sp. tritici was inoculated to the wheat. 7 days after, the proportion of the formed lesion in the inoculated leaves were measured to calculate the control value in accordance with the same formula as in the Test Example 1. The test was carried out in duplicate.

[2] = tested on: Botrytis cinerea; test: Test on the preventive effect against cucumber gray mold (spore inoculation); type: in vivo; conditions: 72 h, test solution A 500 ppm, 5 ml per pot, cucumber cut leaves, conidium inoculation, 3 days at 20° C.
Protocol: Compounds of the present invention were dissolved in a solvent for emulsion (a mixture of Sorpol (registered trademark) 3005XL (manufactured by Toho Chemical Industry Co., Ltd.): N-methylpyrrolidone: Solvesso (registered trademark) 200 (manufactured by ExxonMobil Chemical) in a ratio of 1:5:2) to prepare 20 wt % emulsifiable concentrates. Then, distilled water was added to dilute the emulsifiable concentrates to the prescribed concentration (500 ppm), and the obtained solutions were used in the following the Test Examples 1 to 8. Cucumber (varieties: Sagami Hanjiro) was seeded in 90 cm^3 plastic pot, and at the cotyledon stage, 5 ml per pot of test solution A of the compounds of the present invention was applied. After drying in air, the treated leaves were cut and transferred in plastic containers. 30 μl of a mixture of a suspension of conidium of Botrytis cinerea and a dissolved PDA medium in a ratio of 1:1 was dropped on each treated leaf and inoculated. After the inoculation, the plastic containers were placed in 20° C. with humid conditions for 3 days, and the proportion of the formed lesion in the inoculated leaves were counted to calculate the control value in accordance with the same formula as in the Test Example 1. The test was carried out in duplicate.

[3] = tested on: Sclerotinia sclerotiorum; test: Test on the preventive effect against cucumber stem rot; type: in vivo; conditions: 48 h, test solution A 500 ppm, 5 ml per pot, agar block inoculation, 2 days at 20° C.
Protocol: (§1) Compounds of the present invention were dissolved in a solvent for emulsion (a mixture of Sorpol (registered trademark) 3005XL (manufactured by Toho Chemical Industry Co., Ltd.): N-methylpyrrolidone: Solvesso (registered trademark) 200 (manufactured by ExxonMobil Chemical) in a ratio of 1:5:2) to prepare 20 wt % emulsifiable concentrates. Then, distilled water was added to dilute the emulsifiable concentrates to the prescribed concentration (500 ppm), and the obtained solutions were used in the following the Test Examples 1 to 8. Cucumber (varieties: Sagami Hanjiro) was seeded in 90 cm^3 plastic pot, and at the cotyledon stage, 5 ml per pot of test solution A of the compounds of the present invention was applied. After drying in air, the pot was transferred in a plastic container, and an agar blocks (diameter: 5 mm) containing Sclerotinia sclerotiorum which was preliminarily cultivated in a PDA medium was inoculated to the seed leaves of the cucumber treated with the solution. After the inoculation, the plastic container was covered with a plastic sheet, and placed at 20° C. and humidified for 2 days, thus the proportion of the formed lesion in the inoculated leaves were measured to calculate the control value in accordance with the same formula as in the Test Example 1. The test was carried out in duplicate.

[4] = tested on: Botrytis cinerea; test: Test on the preventive effect against cucumber gray mold (mycelium inoculation); type: in vivo; conditions: 48 h, test solution A 500 ppm, 5 ml per pot, cucumber cotyledon, agar block inoculation, 2 days at 20° C.
Protocol: as §1, with “applied. On the next day,” for “applied. After drying in air,”, “containing Botrytis cinerea” for “containing Sclerotinia sclerotiorum”, “inoculated on” for “inoculated to”, “the cotyledon” for “the seed leaves”, “sheet, then” for “sheet, and”, “2 days. Thus” for “2 days, thus”

[5] = tested on: Barber pole worm (Haemonchus contortus); test: Insecticidal test against Barber pole worm (eggs, 96 well plate); type: in vivo; conditions: 96 h, test solution B 100 ppm, 10 μl per well, 25° C. dark, 4 days after treatment, read-out: efficacy (unhatched eggs and inactive larvae relative to non-treated)
Protocol: (§2) Compounds of the present invention were dissolved in dimethyl sulfoxide to prepare 1 wt % solutions. Then, distilled water was added to dilute the solutions to the prescribed concentration (100 ppm), and the obtained solutions were used in the following the Test Examples 9 to 12. 60 μl of a potato dextrose 1% agar medium was added to each well of a 96 well plate, and 30 μl of sterilized water containing eggs of Barber pole worm (Haemonchus contortus) (10 eggs/3 μl) was added to each well. Further, 10 μl per well of test solution B of the compounds of the present invention was added, and the plate was left at rest at 25° C. under dark conditions.

[6] = tested on: Asperaillus niger; test: Test on the antifungal activity against Asperaillus niger; type: cell-based; conditions: 48 h; test solution B 100 ppm, 10 μl per well, 96 well plate, 25° C. dark, 2 days after treatment; read-out: efficacy (flora area ratio relative to non-treated well)
Protocol: as §2, with “spores” for “eggs”, “Asperaillus niger” for “Barber pole worm (Haemonchus contortus)”, “spores/3” for “eggs/3”, “conditions. 2 days after treatment, the flora area ratio (%) was determined to calculate the efficacy (%) relative to the non-treated well in accordance with the following formula. Efficacy (%)=[1−(flora area ratio in treated plot/flora area ratio in non-treated well)]×100” for “conditions.”

CC#Cc1cnc(CCNC(=O)c2ccccc2C(F)(F)F)c(Cl)c1 [1-001, N-[2-[3-chloro-5-(1-propynyl)pyridin-2-yl]ethyl]-2-(trifluoromethyl)benzamide]
pest or weed control at 500 µg/mL [1]: ≥ 70%
pest or weed control at 500 µg/mL [2]: ≥ 70%
pest or weed control at 500 µg/mL [3]: ≥ 70%
pest or weed control at 500 µg/mL [4]: ≥ 70%
pest or weed control at 100 µg/mL [5]: ≥ 50%

O=C(NCCc1ncc(C#CC2CC2)cc1Cl)c1ccccc1C(F)(F)F [1-002]
pest or weed control at 500 µg/mL [1]: ≥ 70%
pest or weed control at 500 µg/mL [2]: ≥ 70%
inhibition of growth at 100 µg/mL [6]: ≥ 50%
pest or weed control at 500 µg/mL [3]: ≥ 70%
pest or weed control at 500 µg/mL [4]: ≥ 70%
pest or weed control at 100 µg/mL [5]: ≥ 50%

CC(C)(C)C#Cc1cnc(CCNC(=O)c2ccccc2C(F)(F)F)c(Cl)c1 [1-003, N-[2-[3-chloro-5-(3,3-dimethyl-1-butynyl)pyridin-2-yl]ethyl]-2-(trifluoromethyl)benzamide]
pest or weed control at 500 µg/mL [1]: ≥ 70%
pest or weed control at 500 µg/mL [2]: ≥ 70%
inhibition of growth at 100 µg/mL [6]: ≥ 50%
pest or weed control at 500 µg/mL [3]: ≥ 70%
pest or weed control at 500 µg/mL [4]: ≥ 70%
pest or weed control at 100 µg/mL [5]: ≥ 50%

O=C(NCC(F)(F)c1ncc(C#CC2CC2)cc1Cl)c1ccccc1C(F)(F)F [1-005]
pest or weed control at 500 µg/mL [1]: ≥ 70%
pest or weed control at 500 µg/mL [2]: ≥ 70%
inhibition of growth at 100 µg/mL [6]: ≥ 50%
pest or weed control at 500 µg/mL [3]: ≥ 70%
pest or weed control at 500 µg/mL [4]: ≥ 70%
pest or weed control at 100 µg/mL [5]: ≥ 50%

CC(CNC(=O)c1ccccc1C(F)(F)F)c1ncc(C#CC2CC2)cc1Cl (stereo not drawn) [1-007, N-[2-[3-chloro-5-(cyclopropylethynyl)pyridin-2-yl]propyl]-2-(trifluoromethyl)benzamide]
pest or weed control at 500 µg/mL [1]: ≥ 70%
pest or weed control at 500 µg/mL [2]: ≥ 70%
inhibition of growth at 100 µg/mL [6]: ≥ 50%
pest or weed control at 500 µg/mL [3]: ≥ 70%
pest or weed control at 500 µg/mL [4]: ≥ 70%
pest or weed control at 100 µg/mL [5]: ≥ 50%

CC(C)(CNC(=O)c1ccccc1C(F)(F)F)c1ncc(C#CC2CC2)cc1Cl [1-008]
pest or weed control at 500 µg/mL [1]: ≥ 70%
pest or weed control at 500 µg/mL [2]: ≥ 70%
inhibition of growth at 100 µg/mL [6]: ≥ 50%
pest or weed control at 500 µg/mL [3]: ≥ 70%
pest or weed control at 500 µg/mL [4]: ≥ 70%
pest or weed control at 100 µg/mL [5]: ≥ 50%

O=C(NCC(c1ncc(C#CC2CC2)cc1Cl)C1CC1)c1ccccc1C(F)(F)F (stereo not drawn) [1-009]
pest or weed control at 500 µg/mL [1]: ≥ 70%
pest or weed control at 500 µg/mL [2]: ≥ 70%
inhibition of growth at 100 µg/mL [6]: ≥ 50%
pest or weed control at 500 µg/mL [3]: ≥ 70%
pest or weed control at 100 µg/mL [5]: ≥ 50%

C=C(CNC(=O)c1ccccc1C(F)(F)F)c1ncc(C#CC)cc1Cl [1-012, N-[2-[3-chloro-5-(1-propynyl)pyridin-2-yl]-2-propenyl]-2-(trifluoromethyl)benzamide]
pest or weed control at 500 µg/mL [1]: ≥ 70%
pest or weed control at 500 µg/mL [2]: ≥ 70%
inhibition of growth at 100 µg/mL [6]: ≥ 50%
pest or weed control at 500 µg/mL [3]: ≥ 70%
pest or weed control at 500 µg/mL [4]: ≥ 70%
pest or weed control at 100 µg/mL [5]: ≥ 50%

CSC(CNC(=O)c1ccccc1C(F)(F)F)c1ncc(C#CC2CC2)cc1Cl (stereo not drawn) [1-021]
pest or weed control at 500 µg/mL [1]: ≥ 70%
pest or weed control at 500 µg/mL [2]: ≥ 70%
inhibition of growth at 100 µg/mL [6]: ≥ 50%
pest or weed control at 500 µg/mL [3]: ≥ 70%
pest or weed control at 500 µg/mL [4]: ≥ 70%
pest or weed control at 100 µg/mL [5]: ≥ 50%

CC(NC(=O)c1ccccc1C(F)(F)F)C(OCc1ccccc1)c1ncc(C#CC2CC2)cc1Cl (stereo not drawn) [1-031, N-[2-benzyloxy-2-[3-chloro-5-(cyclopropylethynyl)pyridin-2-yl]-1-methylethyl]-2-(trifluoromethyl)benzamide]
pest or weed control at 500 µg/mL [1]: ≥ 70%
pest or weed control at 500 µg/mL [2]: ≥ 70%
pest or weed control at 500 µg/mL [3]: ≥ 70%
pest or weed control at 500 µg/mL [4]: ≥ 70%

COC(c1ncc(C#CC2CC2)cc1Cl)C(C)NC(=O)c1nccnc1C(F)(F)F (stereo not drawn) [4-004]
pest or weed control at 500 µg/mL [1]: ≥ 70%
pest or weed control at 500 µg/mL [2]: ≥ 70%
pest or weed control at 500 µg/mL [3]: ≥ 70%
pest or weed control at 500 µg/mL [4]: ≥ 70%
pest or weed control at 100 µg/mL [5]: ≥ 50%

Cn1cc(C(=O)NCC2(c3ncc(C#CC4CC4)cc3Cl)CC2)c(C(F)F)n1 [8-018, N-[[1-[3-chloro-5-(cyclopropylethynyl)pyridin-2-yl]cyclopropyl]methyl]-3-difluoromethyl-1-methyl-1H-pyrazole-4-carboxamide]
pest or weed control at 500 µg/mL [1]: ≥ 70%
pest or weed control at 500 µg/mL [2]: ≥ 70%
pest or weed control at 500 µg/mL [3]: ≥ 70%
pest or weed control at 500 µg/mL [4]: ≥ 70%
pest or weed control at 100 µg/mL [5]: ≥ 50%

COC(=O)C(CNC(=O)c1cn(C)nc1C(F)F)c1ncc(C#CC2CC2)cc1Cl (stereo not drawn) [8-022, 2-[3-chloro-5-(cyclopropylethynyl)pyridin-2-yl]-3-(3-difluoromethyl-1-methyl-1H-pyrazole-4-carboxamide)propionic acid methyl ester]
pest or weed control at 500 µg/mL [1]: ≥ 70%
pest or weed control at 500 µg/mL [2]: ≥ 70%
pest or weed control at 500 µg/mL [3]: ≥ 70%
pest or weed control at 500 µg/mL [4]: ≥ 70%

CC(Cc1ncc(C#CC2CC2)cc1Cl)NC(=O)c1cn(C)nc1C(F)F (stereo not drawn) [8-024, N-[2-[3-chloro-5-(cyclopropylethynyl)pyridin-2-yl]-1-methylethyl]-3-difluoromethyl-1-methyl-1H-pyrazole-4-carboxamide]
pest or weed control at 500 µg/mL [1]: ≥ 70%
pest or weed control at 500 µg/mL [2]: ≥ 70%
pest or weed control at 500 µg/mL [3]: ≥ 70%
pest or weed control at 500 µg/mL [4]: ≥ 70%

CC(Cc1ncc(C#Cc2ccccc2)cc1Cl)NC(=O)c1cn(C)nc1C(F)F (stereo not drawn) [8-027]
pest or weed control at 500 µg/mL [1]: ≥ 70%
pest or weed control at 500 µg/mL [2]: ≥ 70%
pest or weed control at 500 µg/mL [3]: ≥ 70%
pest or weed control at 500 µg/mL [4]: ≥ 70%
